Measured values reported in patent US10322097B2, “Treatment of subjects with multidrug-resistant cancer” (priority 2015, dated 2019).

Legend:
[1] = system: HCT116 p53-/- colon cancer cells; experiment: MTT cytotoxicity assay, HCT116 p53-/-; assay type: cell-based
Procedure: Cell cultures and cytotoxicity assays have been used. Celastrol was dissolved in DMSO at a final concentration of 100 mmol/L and stored at −20° C. Cytotoxicity was assessed using the 3-(4,5-dimethylthiazol-2-yl)-2,5-diphenyltetrazolium bromide assay. 4000 cells from HCT116 p53^+/+ or p53^−/− colon cancer cells and DLD-1 Bax-Bak^+/+ or Bax-Bak^−/− colon cancer cells were seeded on 96-well plates per well. […] Subsequently, 10 μL of MTT reagents were added to each well and incubated at 37° C. for 4 hours followed by the addition of 100 μL solubilization buffer (10% SDS in 0.01 mol/L HCl) and overnight incubation. […] The percentage of cell viability was calculated using the following formula: Cell viability (%)=Cells number treated/Cells number DMSO control×100. Data were obtained from three independent experiments.

[2] = system: CEM-ADR5000 (Leukemia) doxorubicin resistant cells; experiment: MTT cytotoxicity assay, CEM-ADR5000; assay type: cell-based, human
Procedure: (§1) Cell cultures and cytotoxicity assays have been used. Celastrol was dissolved in DMSO at a final concentration of 100 mmol/L and stored at −20° C. Cytotoxicity was assessed using the 3-(4,5-dimethylthiazol-2-yl)-2,5-diphenyltetrazolium bromide assay. 4000 cells from MCF-7 doxorubicin sensitive/resistant breast cancer cells or CEM doxorubicin sensitive/resistant leukemia cells were seeded on 96-well plates per well. After overnight pre-incubation, the cells were exposed to different concentrations of celastrol (0.039-100 μmol/L) or doxorubicin for 3 days. Subsequently, 10 μL of MTT reagents were added to each well and incubated at 37° C. for 4 hours followed by the addition of 100 μL solubilization buffer (10% SDS in 0.01 mol/L HCl) and overnight incubation. Absorbance at 585 nm was determined from each well the next day. The percentage of cell viability was calculated using the following formula: Cell viability (%)=Cells number treated/Cells number DMSO control×100. Data were obtained from three independent experiments.

[3] = system: CCRF-CEM (Leukemia) doxorubicin sensitive cells; experiment: MTT cytotoxicity assay, CCRF-CEM; assay type: cell-based; conditions: Homo sapiens, 72 h, 3 days
Procedure: as §1

[4] = system: MCF-7 (Breast) doxorubicin resistant cancer cells; experiment: MTT cytotoxicity assay, MCF-7 doxorubicin resistant; assay type: cell-based, human
Procedure: as §1

[5] = system: SGC-7901 (Gastric) cisplatin resistant cancer cells; experiment: MTT cytotoxicity assay, SGC-7901 cisplatin resistant; assay type: cell-based, human
Procedure: as §1, with “A2780 cisplatin” for “MCF-7 doxorubicin”, “ovarian” for “breast”, “SGC-7901 cisplatin” for “CEM doxorubicin”, “gastric cancer” for “leukemia”, “cisplatin” for “doxorubicin”

[6] = system: A549 taxol-resistant lung cancer cells; experiment: Annexin V flow cytometry analysis of cell death; assay type: cell-based, human; conditions: 24 h
Procedure: Annexin V flow cytometry analysis has been carried out. Cell death and viability were measured using an Annexin V staining kit (BD Biosciences, San Jose, Calif., USA).
Briefly, A549 taxol-resistant cancer cells were treated with 0.1-0.5 μM celastrol with or without 40 μM of taxol for 24 h. Cells were then harvested and analysed by multiparametric flow cytometry using FITC-Annexin V and propidium iodide staining (BD Biosciences, San Jose, Calif., USA) according to the manufacturer's instructions. Flow cytometry was then carried out using a FACSCalibur flow cytometer (BD Biosciences, San Jose, Calif., USA). Data acquisition and analysis was performed with CellQuest (BD Biosciences, San Jose, Calif., USA). Data were obtained from three independent experiments.

[7] = system: MDA-MB-231/BCRP breast cancer cells; experiment: MTT cytotoxicity assay, MDA-MB-231/BCRP; assay type: cell-based
Procedure: as §1, with “HEK293 and HEK293/ABCB5 kidney” for “MCF-7 doxorubicin sensitive/resistant breast”, “MDA-MB-231 pcDNA and MDA-MB-231/BCRP breast cancer” for “CEM doxorubicin sensitive/resistant leukemia”, “(0.1-10” for “(0.039-100”, “μmol/L)” for “μmol/L) or doxorubicin”

Q: How did the IC50 ([1]; Homo sapiens, HCT-116, 72 h, read-out: IC50 HCT116 p53-/- colon cancer cells) turn out when CC1=C(O)C(=O)C=C2C1=CC=C1[C@@]2(C)CC[C@@]2(C)[C@@H]3C[C@](C)(C(=O)O)CC[C@]3(C)CC[C@]12C [Celastrol, celastrol] was run?
A: 484 nM

Q: And the “Resistant Factor” value ([1]; IC50 HCT116 p53-/- divided by IC50 HCT116 p53+/+)?
A: 0.58

Q: And the “Resistant Factor” value ([2]; CEM-ADR5000 versus CCRF-CEM)?
A: 0.033

Q: What about the IC50 ([2]; Homo sapiens, 72 h, MTT, 3 days) of the same compound?
A: 108 nM

Q: And the IC50 [3]?
A: 3260 nM

Q: What about the IC50 ([4]; Homo sapiens, MCF7, 72 h, read-out: IC50 MCF-7 (Breast) (Doxorubicin resistant)) of the same compound?
A: 950 nM

Q: What about the “Resistant Factor” value ([4]; MCF-7 doxorubicin resistant versus doxorubicin sensitive) of the same compound?
A: 0.84

Q: And the IC50 ([5]; Homo sapiens, SGC-7901, 72 h, read-out: IC50 SGC-7901 (Gastric) (Cisplatin resistant))?
A: 1720 nM

Q: What about the “Resistant Factor” value ([5]; SGC-7901 cisplatin resistant versus cisplatin sensitive) of the same compound?
A: 0.88

Q: What about the “cytotoxicity (cell death, Annexin V)” value ([6]; 0.1-0.5 μM celastrol alone) of the same compound?
A: limited cytotoxicity

Q: And the “taxol-mediated cytotoxicity (cell death, Annexin V) on co-treatment” value ([6]; 0.1-0.5 μM celastrol with 40 μM taxol)?
A: significantly enhanced

Q: And the “Resistant Factor” value ([7]; IC50 MDA-MB-231/BCRP divided by IC50 MDA-MB-231 pcDNA)?
A: 1.28

Q: And the IC50 ([7]; MDA-MB-231/BCRP, 72 h, MTT, 3 days)?
A: 6190 nM
